These results are taken from BindingDB's records for patent US10550105 (Ribon Therapeutics, 2020).

What is called IC50 is the concentration at which inhibition is half-maximal. Low readings indicate greater potency, high ones weaker potency.

Bounds are passed on as bounds.

For the experiment, the target named is T1, Protein mono-ADP-ribosyltransferase TIPARP (Homo sapiens, UniProt Q7Z3E1).
T1 sequence (Q7Z3E1 whole entry): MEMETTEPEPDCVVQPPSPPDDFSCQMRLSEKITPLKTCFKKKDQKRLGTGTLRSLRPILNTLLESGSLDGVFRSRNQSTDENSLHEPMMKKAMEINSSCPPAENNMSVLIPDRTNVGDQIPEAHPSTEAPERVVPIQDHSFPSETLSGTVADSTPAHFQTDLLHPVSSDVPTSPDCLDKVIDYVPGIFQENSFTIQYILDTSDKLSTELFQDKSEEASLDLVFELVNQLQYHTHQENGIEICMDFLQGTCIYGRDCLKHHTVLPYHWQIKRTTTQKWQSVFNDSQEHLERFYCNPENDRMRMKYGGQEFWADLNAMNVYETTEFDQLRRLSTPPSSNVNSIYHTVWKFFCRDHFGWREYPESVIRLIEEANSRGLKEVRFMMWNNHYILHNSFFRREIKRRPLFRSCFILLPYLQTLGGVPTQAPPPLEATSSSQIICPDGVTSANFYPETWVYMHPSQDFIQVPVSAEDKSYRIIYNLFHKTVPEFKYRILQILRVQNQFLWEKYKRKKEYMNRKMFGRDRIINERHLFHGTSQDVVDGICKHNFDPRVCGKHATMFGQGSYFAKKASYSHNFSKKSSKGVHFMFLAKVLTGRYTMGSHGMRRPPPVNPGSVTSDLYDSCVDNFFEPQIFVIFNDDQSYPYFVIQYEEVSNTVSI
Nature of the experiment: Enzymatic Assay for Inhibition of PARP7. The method, then:
Displacement of Probe A, a biotinylated probe binding to the TIPARP active site, was measured using a time-resolved fluorescence energy transfer (TR-FRET) assay. 20 nL of a dose response curve of each test compound was spotted in black 384-well polystyrene proxiplates (Perkin Elmer) using a Mosquito (TTP Labtech). Reactions were performed in a 8 μL volume by adding 6 μL of TIPARP and Probe A in assay buffer (20 mM HEPES pH=8, 100 mM NaCl, 0.1% bovine serum albumin, 2 mM DTT and 0.002% Tween20), incubating with test compound at 25° C. for 30 min, then adding 2 μL of ULight-anti 6×His and LANCE Eu-W1024 labeled streptavidin (Perkin Elmer). The final concentrations of TIPARP and Probe A were 6 nM and 2 nM, respectively. […] The Hill Coefficient is normally allowed to float but may also be fixed at 1 in a 3-parameter fit. Y is the % inhibition and x is the compound concentration.
Turning to `O=C(c1cncc(OC[C@H]2c3ccccc3CN2c2cn[nH]c(=O)c2C(F)(F)F)c1)N1CCn2c(nnc2C(F)(F)F)C1` [US10550105, Example 372], the IC50 was more than 1000 nM.
With `O=C(c1cncc(OCC2c3ccccc3CN2c2cn[nH]c(=O)c2C(F)(F)F)c1)N1CCn2ncnc2C1` (stereo not given) [US10550105, Example 398] the figure was less than 100 nM; with `N#Cc1ccc(N2CCN(C(=O)/C=C\COC[C@H]3c4ccccc4CN3c3cn[nH]c(=O)c3C(F)(F)F)CC2)nc1` [US10550105, Example 79C], less than 100 nM; with `C[C@@H](OCCC(=O)N1CCN(c2ccc(C#N)cn2)CC1)[C@@H]1CCCN1c1cn[nH]c(=O)c1C(F)(F)F` [US10550105, Example 140B], “in the range around 550 nM”.
As to `N#Cc1ccc(N2CCN(C(=O)/C=C\COC[C@@H]3c4ccccc4CN3c3cn[nH]c(=O)c3C(F)(F)F)CC2)nc1` [US10550105, Example 79D], the IC50 is less than 100 nM.
